Assay results reported in patent US12097210B2, “Concomitant administration of glucocorticoid receptor modulators and CYP3A inhibitors” (Corcept Therapeutics, Inc., priority 2017, dated 2024).

Tests used:
Assay type in all cases: in vivo, human
[1] = Example 1: safety (adverse events, physical examinations, clinical laboratory tests, ECG); conditions: mifepristone 300 mg single dose with ketoconazole for 14 days
Method: Subjects in both cohorts returned to the study center on Day 15 for safety monitoring, and completion of the Termination Visit procedures, followed by discharge from the study. Safety was assessed by spontaneously reported adverse events, physical examinations, and routine clinical laboratory tests. To the extent possible, any adverse events deemed study drug-related and that were ongoing at the time of discharge from the study were followed-up to resolution or until a determination is made that the unresolved event was stable.

[2] = Example 2: effect of a 400 mg single dose of ketoconazole on PK of an 8-day regimen of 300 mg or 600 mg OD mifepristone after moderate fat breakfast; conditions: for increase in AUC0-24, Day 8 relative to Day 7 / increase in Cmax, Day 8 relative to Day 7: 400 mg ketoconazole on Day 8
Method: This was an open-label study in healthy male subjects. […] The 400 mg single dose of ketoconazole was given to all subjects on day 8.
METHODOLOGY: Twelve subjects were enrolled, six in Cohort 1 and 6 in Cohort 2.
Subjects were discharged on Day 11.
Subjects were discharged on Day 11. Subjects in both cohorts returned to study center on Day 13 for safety monitoring, collection of the 120-hour PK draw, and completion of the Termination Visit procedures, followed by discharge from the study. To the extent possible, any adverse events deemed study drug-related and that were ongoing at the time of discharge from the study were followed-up to resolution or until a determination was made that the unresolved event was stable.
DIAGNOSIS AND MAIN […] FOR INCLUSION: Healthy male volunteers between the ages of 18 to 45 years of age with a body mass index (BMI) ranging between 19 and 32 kg/m2 and a weight of at least 60 kg (132 lbs) were enrolled. Subjects had no clinically significant abnormal findings on the physical examination, ECG, blood pressure, heart rate, medical history, or clinical laboratory results during screening. The QTc interval at screening was less than 450 msec.
DURATION OF TREATMENT: Up to a total of 28 days, including up to 2 weeks screening, dosing on Days 1-8, safety observation, and PK sample collection through Day 13.
Additionally, comparisons were made between the PK results of cohort 1 and 2. Pharmacokinetic parameters Cmax, T½ and total AUC were calculated for plasma concentrations of ketoconazole following the single dose on Day 8. Descriptive statistics (count, mean, median, standard deviation, minimum, maximum, and % coefficient of variation) were provided. Ketoconazole concentrations were listed and summarized. GM means of Cmax and total AUC were compared for the single dose in this study to the combined data of reported 400 mg single doses of ketoconazole of healthy subjects from the literature.

[3] = Example 2: safety (adverse events, physical examinations, laboratory tests)
Method: Safety was assessed by spontaneously reported adverse events, physical examinations, and routine clinical laboratory tests. Adverse event data were tabulated. Physical findings and laboratory test results were listed by subject.

[4] = Example 3: safety (adverse events, laboratory tests, vital signs, ECGs)
Method: (§1) A single dose of ketoconazole was administered on Day −1.

[5] = Example 3: cross-study comparison of exposure with historic study of 1200 mg mifepristone OD
[6] = Examples 5-8: liver function of patient with excess cortisol on ketoconazole and reduced mifepristone dose
[7] = Example 1: effect of oral ketoconazole (400 mg OD or 200 mg BID) on plasma pharmacokinetics of a 300 mg single dose of mifepristone, fasted; conditions: Keto 200 mg BID vs 400 mg OD
Excerpt: This study was an open-label study in healthy male subjects.
Healthy male volunteers between the ages of 18 to 45 years of age with a body mass index (BMI) ranging between 19 and 32 kg/m2 and a weight of at least 60 kg (132 lbs) were enrolled. Subjects had no clinically significant abnormal findings on the physical examination, ECG, blood pressure, heart rate, medical history, or clinical laboratory results during screening. The QTc interval at screening was less than 450 msec.
In cohort 1, six subjects received ketoconazole 400 mg OD for 14 days.
Subjects remained in the clinic on Days 2 and 3 to receive 400 mg OD oral ketoconazole fasted, and for safety evaluation and collection of blood pharmacokinetic (PK) samples. Subjects were discharged from the clinic on Day 4 following administration of 400 mg OD oral ketoconazole fasted, and returned to the clinic the mornings of Days 5 through 13 to receive 400 mg OD oral ketoconazole fasted.
In cohort 2, six subjects received ketoconazole 200 mg BID for 14 days. […] All 12 subjects completed the study. […]
Subjects in both cohorts returned to the study center on Day 15 for safety monitoring, and completion of the Termination Visit procedures, followed by discharge from the study. Safety was assessed by spontaneously reported adverse events, physical examinations, and routine clinical laboratory tests. […]

[8] = Example 3: effect of ketoconazole 200 mg twice daily on PK of mifepristone 600 mg once daily and metabolites, with food
Method: as §1
The study was a two period study design.
Concentrations of RU 42633 and RU 42848 were similar on Day 17 and Day 12.

[9] = MIFE 300 mg/d with vs without 400 mg Keto
[10] = MIFE 600 mg/d with vs without 400 mg Keto
[11] = MIFE 600 vs 300 mg/d, no ketoconazole
[12] = MIFE 600 vs 300 mg/d, with 400 mg Keto
[13] = mifepristone 600 mg OD Days 1-17, ketoconazole 200 mg BID Days 13-17
[14] = Test: Day 17, 600 mg mifepristone OD + 200 mg Ketoconazole BID, Reference: historic study Day 7, 1200 mg mifepristone OD alone, after 34% fat meal
[15] = Test: Day 17, 600 mg mifepristone OD + 200 mg Ketoconazole BID, Reference: Day 12, 600 mg mifepristone OD, geometric mean ratio

CC#C[C@]1(O)CC[C@H]2[C@@H]3CCC4=CC(=O)CCC4=C3[C@@H](c3ccc(N(C)C)cc3)C[C@@]21C [Mifepristone, 11β-(4-dimethylaminophenyl)-17β-hydroxy-17α-(1-propynyl)-estra-4,9-dien-3-one]
subjects experiencing at least one treatment emergent adverse event (TEAE) ([1]; 12 subjects): 25% | SAE or AE resulting in discontinuation [1]: No subject experienced an SAE or an AE that resulted in discontinuation from the study | TEAEs considered by the investigator to be related to the drug [1]: No TEAE was considered by the investigator to be related to Mifepristone | changes in ECG parameters [1]: No clinically significant changes in any ECG parameter | changes in laboratory test results [1]: Minimal changes in laboratory test results | increase in AUC0-24, Day 8 relative to Day 7 ([2]; Cohort 1, 300 mg OD): 25% | increase in Cmax, Day 8 relative to Day 7 ([2]; Cohort 1, 300 mg OD): 20% | increase in AUC0-24, Day 8 relative to Day 7 ([2]; Cohort 2, 600 mg OD): 28% | increase in Cmax, Day 8 relative to Day 7 ([2]; Cohort 2, 600 mg OD): 39% | AUC0-24 greater at 600 mg OD than at 300 mg OD ([2]; Day 8 with 400 mg ketoconazole): 52% | Cmax greater at 600 mg OD than at 300 mg OD ([2]; Day 8 with 400 mg ketoconazole): 65% | half-life greater at 600 mg OD than at 300 mg OD ([2]; Day 8 with 400 mg ketoconazole): 13% | Mean Ratio AUCτ, C1 Day 8/Day 7 [2, 9]: 1.25 | Mean Ratio Cmax, C1 Day 8/Day 7 [2, 9]: 1.19 | Mean Ratio AUCτ, C2 Day 8/Day 7 [2, 10]: 1.28 | Mean Ratio Cmax, C2 Day 8/Day 7 [2, 10]: 1.39 | Mean Ratio AUCτ, Day 7 C2/C1 [2, 11]: 1.48 | Mean Ratio Cmax, Day 7 C2/C1 [2, 11]: 1.42 | Mean Ratio AUCτ, Day 8 C2/C1 [2, 12]: 1.52 | Mean Ratio Cmax, Day 8 C2/C1 [2, 12]: 1.65 | TEAEs considered possibly or probably related to mifepristone administration ([3]; four subjects in Cohort 2 (600 mg OD)): dizziness, nausea, vomiting, dry mouth, and rash | subjects experiencing at least 1 TEAE ([3]; twelve subjects, mifepristone 300 or 600 mg OD 8 days, ketoconazole 400 mg Day 8): 50% | discontinuation due to AEs ([4]; during the mifepristone-only treatment period (moderate hypertension; moderate bilateral rash)): Two subjects discontinued due to AEs | subjects with at least one TEAE ([4]; during the mifepristone/ketoconazole treatment period): 57.1% | subjects with at least one TEAE ([4]; during treatment with mifepristone alone (600 mg OD)): 55.6% | deaths or SAEs [4, 13]: No deaths or SAEs were reported | severe TEAEs [4, 13]: No severe TEAEs were reported | exposures as percent of those observed following the highest labeled dose of mifepristone (1200 mg daily) ([5]; 600 mg mifepristone OD + 200 mg ketoconazole BID): approximately 85% | Ratio % Test/Ref, AUC0-24 [5, 14]: 87.27% | Ratio % Test/Ref, Cmax [5, 14]: 84.64% | liver function of the patient ([6]; Example 5: mifepristone reduced from 1200 mg to 900 mg daily with ketoconazole): not significantly compromised | liver function of the patient ([6]; Example 6: mifepristone reduced from 900 mg to 600 mg daily with ketoconazole): not significantly compromised | liver function of the patient ([6]; Example 7: mifepristone reduced from 600 mg to 300 mg daily with ketoconazole): not significantly compromised | liver function of the patient ([6]; Example 8: mifepristone reduced from 1500 mg to 1200 mg daily with ketoconazole): not significantly compromised | Mean Ratio AUCtotal (C2/C1) ([7]; geometric mean ratio (AUCinf in text)): 1.05 | Mean Ratio Cmax (C2/C1) ([7]; geometric mean ratio): 1.15 | concentrations on Day 17 compared with Day 12 ([8]; 600 mg mifepristone daily with 200 mg ketoconazole twice daily vs mifepristone alone): higher | trough concentrations through the start of ketoconazole administration (Day 13) ([8]; FIG. 1, 600 mg mifepristone OD): increasing day-by-day | difference of time 0 (pre-dose) plasma concentration, Day 17 vs Day 12 ([8]; FIG. 2, before and after inhibition of CYP3A by ketoconazole): ~500 ng/mL | Ratio % Test/Reference, AUC0-24 [8, 15]: 138.01% | Ratio % Test/Reference, Cmax [8, 15]: 127.59%
